{"source": "PubChem BioAssay AID1963833", "about": "(Molecular Pharmacology Branch, DTP, NCI, 2024)", "test_system": "883617-216-R-J1-PDC complex spheroid viability", "experiment": "Anticancer human tumor 883617-216-R-J1-PDC patient-derived bladder carcinoma cell line growth inhibition [POLQ]", "settings": "for pIC50: curve of first compound; for viability, T/C: stronger effect = lower value", "method": "Multicellular complex tumor spheroid response to Polymerase (POL) inhibitors (novobiocin, ART-558, RP6685) in combination with a variety of drugs and investigational agents in selected tumor cell lines\nThe POL inhibitors (novobiocin, ART-558, and RP6685) were evaluated both individually and in combination with standard of care and investigational anticancer small molecules within a complex spheroid model of solid tumors. . Complex spheroids include a stromal component modeled by human endothelial cells (HUVEC) and fibroblasts modeled by human mesenchymal stem cells (MSCs). The concentration ranges selected for each drug and investigational agent were based upon clinically achievable concentrations if the clinical Cmax of the agent was known.\nCompounds. The drugs and investigational agents: novobiocin (NSC847541), ART-558 (NSC835418), RP-6685 (NSC848927), peposertib (NSC802822), ceralasertib (NSC780249), elimusertib (NSC800525), camonsertib (NSC841442), AZD-1390 (NSC803789), olaparib (NSC753686), talazoparib (NSC767125), rucaparib (NSC756644), sotorasib (NSC818433), MRTX-1133 (NSC836407), SN-38 (NSC673596), topotecan (NSC609699), epotoside (NSC141540), doxorubicin (NSC123127), gemcitabine (NSC613327), 5-fluorouracil (NSC19893), paclitaxel (NSC125973), vemurafenib (NSC761431), MSA-2 (NSC828583), SN-011 (NSC837082), adavosertib (NSC754352), prexasertib (NSC758257), carboplatin (NSC241240) and oxaliplatin (NSC266046), were obtained from the National Cancer Institute (NCI) Developmental Therapeutics Program Chemical Repository (21). The FDA-approved anticancer drug set is available from the Developmental Therapeutics Program at https://dtp.cancer.gov/organization/dscb/obtaining/. […] The stock solutions were prepared in dimethyl sulfoxide (DMSO, Sigma-Aldrich, St. Louis, MO, cat. D2650), except for the platinum compounds which were prepared in saline (Quality Biological, Gaithersburg, MD, cat. 114-055-101), at 800-fold the tested concentration and stored at -70 degrees C prior to their use. All drugs and investigational agents were tested over a range starting from a high concentration at or near the clinical Cmax and decreasing in half-log increments. If the clinical Cmax for an agent had not been determined, the highest concentration tested was 10 microM, except for SN-38, which was tested at a high concentration of 1 microM.\nCell Culture. All cells were maintained in an incubator at 37 degrees C and 5% CO2 with 95% humidity. The PDC lines were cultured according to standard operating procedures established by the NCI PDMR (https://pdmr.cancer.gov). Table 3 of the manuscript, lists the cell lines along with the number of the three cell types plated to form the mct-spheroids and media for tumor cell growth. After thawing, all PDC lines, except 997537-175-T-J1-PDC and 415267-285-R-J2-PDC, were cultured in Matrigel-coated flasks prepared with a working solution of 1X Ham's F-12 nutrient mix, without supplementation (Thermo Fisher Scientific, cat. 11765054), 100 U/mL penicillin-streptomycin (Thermo Fisher Scientific, cat. 15140122), and 2.5% Matrigel (Corning Inc., Corning, NY, cat. 354248) for the first three passages. The two PDC lines 997537-175-T-J1-PDC and 415267-285-R-J2-PDC were cultured on uncoated flasks. The 857933-349-R-J2-PDC line was cultured in 6C/Colon 1B media containing advanced DMEM/F-12 (Thermo Fisher Scientific, cat. 12634028), 10 mM HEPES (Thermo Fisher Scientific, cat. 15630080), 1X GlutaMAX supplement (Thermo Fisher Scientific, cat. 35050061), 0.1 mg/mL primocin (InvivoGen, San Diego, CA, cat. ant-pm-2), 10% defined fetal bovine serum, heat inactivated (HyClone Laboratories Inc., Logan, UT, cat. SH30070.03HI), 50% L-WRN conditioned media (ATCC, cat. CRL-3276), 1.25 mM N-Acetyl-L-cysteine (Sigma-Aldrich, cat. A9165), 10 mM nicotinamide (Sigma-Aldrich, cat. N0636), 1X B-27 supplement (Thermo Fisher Scientific, cat. 17504044), 1X N-2 supplement (Thermo Fisher Scientific, cat. […]", "note": "pIC50: −log10 of the molar value."}
{"molecule": "CC1COCCN1c1cc(C2(S(C)(=N)=O)CC2)nc(-c2ccnc3[nH]ccc23)n1", "note": "(configuration not stated) + Cc1cccc(N(C)C(=O)C2C(O)CCN2c2nc(C)cc(C(F)(F)F)c2C#N)c1;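 note: spheroids exposed to compounds for seven days before readout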;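 for viability, T/C: 100% = DMSO vehicle control viability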", "values": [{"measurement": "pIC50", "setting": "second compound 0.0316 µM", "value": 5.48}, {"measurement": "pIC50", "setting": "second compound 0.1 µM", "value": 5.54}, {"measurement": "pIC50", "setting": "second compound 0.316 µM", "value": 5.56}, {"measurement": "pIC50", "setting": "second compound 1 µM", "value": 5.56}, {"measurement": "pIC50", "setting": "second compound 3.16 µM", "value": 5.54}, {"measurement": "pIC50", "setting": "second compound 10 µM", "value": 5.22}, {"measurement": "viability, T/C", "setting": "second compound 0.0316 µM, first compound 0.0316 µM", "value": 97.7, "unit": "%"}, {"measurement": "viability, T/C", "setting": "second compound 0.0316 µM, first compound 0.1 µM", "value": 91.2, "unit": "%"}, {"measurement": "viability, T/C", "setting": "second compound 0.0316 µM, first compound 0.316 µM", "value": 92.8, "unit": "%"}, {"measurement": "viability, T/C", "setting": "second compound 0.0316 µM, first compound 1 µM", "value": 77.5, "unit": "%"}, {"measurement": "viability, T/C", "setting": "second compound 0.0316 µM, first compound 3.16 µM", "value": 50.9, "unit": "%"}, {"measurement": "viability, T/C", "setting": "second compound 0.0316 µM, first compound 10 µM", "value": 30.8, "unit": "%"}, {"measurement": "viability, T/C", "setting": "second compound 0.1 µM, first compound 0.0316 µM", "value": 102, "unit": "%"}, {"measurement": "viability, T/C", "setting": "second compound 0.1 µM, first compound 0.1 µM", "value": 89.9, "unit": "%"}, {"measurement": "viability, T/C", "setting": "second compound 0.1 µM, first compound 0.316 µM", "value": 87.7, "unit": "%"}, {"measurement": "viability, T/C", "setting": "second compound 0.1 µM, first compound 1 µM", "value": 65.2, "unit": "%"}, {"measurement": "viability, T/C", "setting": "second compound 0.1 µM, first compound 3.16 µM", "value": 48.6, "unit": "%"}, {"measurement": "viability, T/C", "setting": "second compound 0.1 µM, first compound 10 µM", "value": 36.1, "unit": "%"}, {"measurement": "viability, T/C", "setting": "second compound 0.316 µM, first compound 0.0316 µM", "value": 88.2, "unit": "%"}, {"measurement": "viability, T/C", "setting": "second compound 0.316 µM, first compound 0.1 µM", "value": 96.4, "unit": "%"}, {"measurement": "viability, T/C", "setting": "second compound 0.316 µM, first compound 0.316 µM", "value": 94.7, "unit": "%"}, {"measurement": "viability, T/C", "setting": "second compound 0.316 µM, first compound 1 µM", "value": 77.8, "unit": "%"}, {"measurement": "viability, T/C", "setting": "second compound 0.316 µM, first compound 3.16 µM", "value": 46.6, "unit": "%"}, {"measurement": "viability, T/C", "setting": "second compound 0.316 µM, first compound 10 µM", "value": 38.6, "unit": "%"}, {"measurement": "viability, T/C", "setting": "second compound 1 µM, first compound 0.0316 µM", "value": 108, "unit": "%"}, {"measurement": "viability, T/C", "setting": "second compound 1 µM, first compound 0.1 µM", "value": 93.5, "unit": "%"}, {"measurement": "viability, T/C", "setting": "second compound 1 µM, first compound 0.316 µM", "value": 84.3, "unit": "%"}, {"measurement": "viability, T/C", "setting": "second compound 1 µM, first compound 1 µM", "value": 68.4, "unit": "%"}, {"measurement": "viability, T/C", "setting": "second compound 1 µM, first compound 3.16 µM", "value": 43.9, "unit": "%"}, {"measurement": "viability, T/C", "setting": "second compound 1 µM, first compound 10 µM", "value": 37.2, "unit": "%"}, {"measurement": "viability, T/C", "setting": "second compound 3.16 µM, first compound 0.0316 µM", "value": 105, "unit": "%"}, {"measurement": "viability, T/C", "setting": "second compound 3.16 µM, first compound 0.1 µM", "value": 94.1, "unit": "%"}, {"measurement": "viability, T/C", "setting": "second compound 3.16 µM, first compound 0.316 µM", "value": 93.1, "unit": "%"}, {"measurement": "viability, T/C", "setting": "second compound 3.16 µM, first compound 1 µM", "value": 65.8, "unit": "%"}, {"measurement": "viability, T/C", "setting": "second compound 3.16 µM, first compound 3.16 µM", "value": 50, "unit": "%"}, {"measurement": "viability, T/C", "setting": "second compound 3.16 µM, first compound 10 µM", "value": 38, "unit": "%"}, {"measurement": "viability, T/C", "setting": "second compound 10 µM, first compound 0.0316 µM", "value": 119, "unit": "%"}, {"measurement": "viability, T/C", "setting": "second compound 10 µM, first compound 0.1 µM", "value": 91.4, "unit": "%"}, {"measurement": "viability, T/C", "setting": "second compound 10 µM, first compound 0.316 µM", "value": 112, "unit": "%"}, {"measurement": "viability, T/C", "setting": "second compound 10 µM, first compound 1 µM", "value": 74.4, "unit": "%"}, {"measurement": "viability, T/C", "setting": "second compound 10 µM, first compound 3.16 µM", "value": 67.6, "unit": "%"}, {"measurement": "viability, T/C", "setting": "second compound 10 µM, first compound 10 µM", "value": 37.8, "unit": "%"}]}
